{"source": "ChEMBL document CHEMBL1150232", "about": "“Microspinosamide, a new HIV-inhibitory cyclic depsipeptide from the marine sponge Sidonops microspinosa” (J Nat Prod, 2001)", "key": {"[1]": {"system": "CEM-SS", "assay": "Cytotoxicity against human CEM-SS cells", "assay_type": "cell-based"}, "[2]": {"system": "Human immunodeficiency virus 1", "assay": "Antiviral activity against HIV1 infected in human CEM-SS cells assessed as inhibition of virus-induced cytopathic effect by XTT assay", "assay_type": "functional, organism-based", "settings": "Human immunodeficiency virus 1, CEM-SS"}}}
{"molecule": "CCC(C)(C)[C@H](NC(=O)[C@H](NC(=O)[C@@H]1CCCN1C(=O)C(NC(=O)[C@@H](C)NC=O)C(O)c1ccc(Br)cc1)C(C)(C)C)C(=O)N[C@H](Cc1c[nH]c2ccccc12)C(=O)N[C@@H](CCCNC(=N)N)C(=O)N[C@H](CS(=O)(=O)O)C(=O)N[C@@H]1C(=O)N(C)[C@@H](CCC(N)=O)C(=O)N[C@H](C(C)C)C(=O)N2CCC[C@H]2C(=O)N[C@H](CC(=O)O)C(=O)O[C@@H]1C", "note": "(some centres not stated) [MICROSPINOSAMIDE]", "values": [{"measurement": "IC50", "setting": "[1]", "value": 3, "unit": "µg/mL"}, {"measurement": "EC50", "setting": "[2]", "value": 0.2, "unit": "µg/mL"}]}
